Data reported in patent US6355799B1, “Substituted benzene compounds, process for their preparation, and herbicidal and defoliant compositions containing them” (ISK Americas Incorporated, priority 1997, dated 2002).

Tests used:
Assay type in all cases: in vivo
[1] = test system: redroot pigweed (Amaranthus retroflexus, AMARE); assay: Pre-emerge test, greenhouse herbicide activity screening; conditions: pre-emerge, 14 days after application, rating scale 0-100
How it was run: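 Visual ratings on a 0-100 scale (0 no damage, 100 all plants dead) were taken at 14 days after treatment. Rates of 15-1000 g ai/ha in acetone, 187 l/ha, were sprayed onto soil one day after planting (pre-emerge) or onto 2-3 leaf plants with 0.25% v/v surfactant (post-emerge).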

[2] = test system: barnyardgrass (Echinochloa crus-galli, ECHCG); assay: as above; conditions: pre-emerge, 14 days after application, rating scale 0-100
How it was run: (§1)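 Applied at 15–1000 g ai/ha from acetone in 187 l/ha spray volume. Post-emergence applications included 0.25% v/v non-ionic surfactant and reached plants sown 8–21 days before. Pre-emergence applications were incorporated by surface watering. Efficacy or crop damage was rated on a 0–100 scale after 14 days.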

[3] = test system: common ragweed (Ambrosia artemisizfolia L., AMBEL); assay: as above; conditions: pre-emerge, 14 days after application, rating scale 0-100
How it was run: as §1

[4] = test system: green foxtail (Setaria viridis, SETVI); assay: as above; conditions: pre-emerge, 14 days after application, rating scale 0-100
How it was run: as §1

[5] = test system: ivyleaf morningglory (Ipomoea hederacea, IPOHE); assay: as above; conditions: pre-emerge, 14 days after application, rating scale 0-100
How it was run: as §1

[6] = test system: johnsongrass (Sorghum halepense, SORHA); assay: as above; conditions: pre-emerge, 14 days after application, rating scale 0-100
How it was run: as §1

[7] = test system: lambsquarters (Chenopodium album, CHEAL); assay: as above; conditions: pre-emerge, 14 days after application, rating scale 0-100
How it was run: as §1

[8] = test system: large crabgrass (Digitaria sanguinalis, DIGSA); assay: as above; conditions: pre-emerge, 14 days after application, rating scale 0-100
How it was run: as §1

[9] = test system: sicklepod (Cassia obtusifolia, CASOB); assay: as above; conditions: pre-emerge, 14 days after application, rating scale 0-100
How it was run: as §1

[10] = test system: velvetleaf (Abutilon theophrasti, ABUTH); assay: as above; conditions: pre-emerge, 14 days after application, rating scale 0-100
How it was run: as §1

[11] = test system: field corn (Zea mays L., var. Dekalb 535, CORN); assay: Pre-emerge test, crop safety; conditions: pre-emerge, 14 days after application, rating scale 0-100
How it was run: (§2)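 Sandy loam pots; pre-emerge: sown 1 d pre-spray, surface-watered after, then bottom-watered. Post-emerge: sown 8–21 d before, 2–3 leaf stage, + 0.25% v/v NIS, bottom-watered. Acetone, 187 l/ha track spray, 15–1000 g ai/ha. 0–100 injury score, day 14.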

[12] = test system: upland rice (Oryza sp., var. Tebonnet, RICE); assay: Pre-emerge test, crop safety; conditions: pre-emerge, 14 days after application, rating scale 0-100
How it was run: as §2

[13] = test system: barnyardgrass (Echinochloa crus-galli, ECHCG); assay: Post-emerge test, greenhouse herbicide activity screening; conditions: post-emerge, 14 days after application, rating scale 0-100
How it was run: (§3)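 Each test used a mechanized track sprayer delivering 187 l/ha of acetone solution at 15–1000 g ai/ha. Post-emerge foliage at 2–3 leaves was treated with added 0.25% v/v non-ionic surfactant and bottom-watered only. Injury was assessed on day 14, where 100 means total kill.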

[14] = test system: green foxtail (Setaria viridis, SETVI); assay: as above; conditions: post-emerge, 14 days after application, rating scale 0-100
How it was run: as §3

[15] = test system: ivyleaf morningglory (Ipomoea hederacea, IPOHE); assay: as above; conditions: post-emerge, 14 days after application, rating scale 0-100
How it was run: as §3

[16] = test system: johnsongrass (Sorghum halepense, SORHA); assay: as above; conditions: post-emerge, 14 days after application, rating scale 0-100
How it was run: as §3

[17] = test system: lambsquarters (Chenopodium album, CHEAL); assay: as above; conditions: post-emerge, 14 days after application, rating scale 0-100
How it was run: as §3

[18] = test system: large crabgrass (Digitaria sanguinalis, DIGSA); assay: as above; conditions: post-emerge, 14 days after application, rating scale 0-100
How it was run: as §3

[19] = test system: redroot pigweed (Amaranthus retroflexus, AMARE); assay: as above; conditions: post-emerge, 14 days after application
How it was run: as §3

[20] = test system: sicklepod (Cassia obtusifolia, CASOB); assay: as above; conditions: post-emerge, 14 days after application, rating scale 0-100
How it was run: as §3

[21] = test system: velvetleaf (Abutilon theophrasti, ABUTH); assay: as above; conditions: post-emerge, 14 days after application, rating scale 0-100
How it was run: as §3

[22] = test system: field corn (Zea mays L., var. Dekalb 535, CORN); assay: Post-emerge test, crop safety; conditions: post-emerge, 14 days after application, rating scale 0-100
How it was run: as §1

[23] = test system: upland rice (Oryza sp., var. Tebonnet, RICE); assay: Post-emerge test, crop safety; conditions: post-emerge, 14 days after application, rating scale 0-100
How it was run: as §1

[24] = 63 g ai/ha, rating scale 0-100 (0 no damage, 100 complete death)
[25] = 250 g ai/ha, rating scale 0-100

COc1c(Cl)cc(F)c(-n2c(=O)cc(C(F)(F)F)n(C)c2=O)c1NNC(=O)c1ccccc1 [15-3]
20: Post-emerge Herbicidal Activity DIGSA (phytotoxicity rating) ([18]; 63 g ai/ha)
50: Post-emerge Herbicidal Activity RICE (crop damage rating) ([23]; 63 g ai/ha)
95: phytotoxicity rating RICE ([12]; 63 g ai/ha) | Post-emerge Herbicidal Activity IPOHE (phytotoxicity rating) ([15]; 63 g ai/ha) | Post-emerge Herbicidal Activity CHEAL (phytotoxicity rating) ([17]; 63 g ai/ha) | Post-emerge Herbicidal Activity AMARE (phytotoxicity rating) [19, 24]
25: Post-emerge Herbicidal Activity CORN (crop damage rating) ([22]; 63 g ai/ha)
0: Post-emerge Herbicidal Activity SORHA (phytotoxicity rating) ([16]; 63 g ai/ha)
90: phytotoxicity rating CORN ([11]; 63 g ai/ha) | Post-emerge Herbicidal Activity ECHCG (phytotoxicity rating) ([13]; 250 g ai/ha) | Post-emerge Herbicidal Activity SORHA (phytotoxicity rating) ([16]; 250 g ai/ha) | Post-emerge Herbicidal Activity RICE (crop damage rating) ([23]; 250 g ai/ha)
70: Post-emerge Herbicidal Activity CASOB (phytotoxicity rating) ([20]; 63 g ai/ha)
100: phytotoxicity rating AMARE ([1]; 63 g ai/ha) | phytotoxicity rating AMARE ([1]; 250 g ai/ha) | phytotoxicity rating ECHCG ([2]; 63 g ai/ha) | phytotoxicity rating ECHCG ([2]; 250 g ai/ha) | phytotoxicity rating AMBEL ([3]; 63 g ai/ha) | phytotoxicity rating AMBEL ([3]; 250 g ai/ha) | phytotoxicity rating SETVI ([4]; 63 g ai/ha) | phytotoxicity rating SETVI ([4]; 250 g ai/ha) | phytotoxicity rating IPOHE ([5]; 63 g ai/ha) | phytotoxicity rating IPOHE ([5]; 250 g ai/ha) | phytotoxicity rating SORHA ([6]; 63 g ai/ha) | phytotoxicity rating SORHA ([6]; 250 g ai/ha) | phytotoxicity rating CHEAL ([7]; 63 g ai/ha) | phytotoxicity rating CHEAL ([7]; 250 g ai/ha) | phytotoxicity rating DIGSA ([8]; 63 g ai/ha) | phytotoxicity rating DIGSA ([8]; 250 g ai/ha) | phytotoxicity rating CASOB ([9]; 63 g ai/ha) | phytotoxicity rating CASOB ([9]; 250 g ai/ha) | phytotoxicity rating ABUTH ([10]; 63 g ai/ha) | phytotoxicity rating ABUTH ([10]; 250 g ai/ha) | phytotoxicity rating CORN ([11]; 250 g ai/ha) | phytotoxicity rating RICE ([12]; 250 g ai/ha) | Post-emerge Herbicidal Activity IPOHE (phytotoxicity rating) ([15]; 250 g ai/ha) | Post-emerge Herbicidal Activity CHEAL (phytotoxicity rating) ([17]; 250 g ai/ha) | Post-emerge Herbicidal Activity AMARE (phytotoxicity rating) [19, 25] | Post-emerge Herbicidal Activity CASOB (phytotoxicity rating) ([20]; 250 g ai/ha) | Post-emerge Herbicidal Activity ABUTH (phytotoxicity rating) ([21]; 63 g ai/ha) | Post-emerge Herbicidal Activity ABUTH (phytotoxicity rating) ([21]; 250 g ai/ha)
30: Post-emerge Herbicidal Activity SETVI (phytotoxicity rating) ([14]; 63 g ai/ha)
80: Post-emerge Herbicidal Activity SETVI (phytotoxicity rating) ([14]; 250 g ai/ha) | Post-emerge Herbicidal Activity DIGSA (phytotoxicity rating) ([18]; 250 g ai/ha) | Post-emerge Herbicidal Activity CORN (crop damage rating) ([22]; 250 g ai/ha)
10: Post-emerge Herbicidal Activity ECHCG (phytotoxicity rating) ([13]; 63 g ai/ha)

CCCOC(=O)C(Cl)Cc1c(OCC)c(Cl)cc(F)c1-n1c(=O)cc(C(F)(F)F)n(C)c1=O (centres unmarked) [14-66]
0: phytotoxicity rating AMBEL ([3]; 63 g ai/ha) | phytotoxicity rating AMBEL ([3]; 250 g ai/ha) | phytotoxicity rating IPOHE ([5]; 63 g ai/ha) | phytotoxicity rating SORHA ([6]; 63 g ai/ha) | phytotoxicity rating CASOB ([9]; 63 g ai/ha) | phytotoxicity rating CASOB ([9]; 250 g ai/ha) | phytotoxicity rating CORN ([11]; 63 g ai/ha) | phytotoxicity rating CORN ([11]; 250 g ai/ha) | phytotoxicity rating RICE ([12]; 63 g ai/ha) | Post-emerge Herbicidal Activity RICE (crop damage rating) ([23]; 63 g ai/ha)
100: phytotoxicity rating AMARE ([1]; 63 g ai/ha) | phytotoxicity rating AMARE ([1]; 250 g ai/ha) | phytotoxicity rating ECHCG ([2]; 250 g ai/ha) | phytotoxicity rating SETVI ([4]; 250 g ai/ha) | phytotoxicity rating CHEAL ([7]; 250 g ai/ha) | phytotoxicity rating DIGSA ([8]; 250 g ai/ha) | phytotoxicity rating ABUTH ([10]; 250 g ai/ha) | Post-emerge Herbicidal Activity ECHCG (phytotoxicity rating) ([13]; 63 g ai/ha) | Post-emerge Herbicidal Activity ECHCG (phytotoxicity rating) ([13]; 250 g ai/ha) | Post-emerge Herbicidal Activity SETVI (phytotoxicity rating) ([14]; 250 g ai/ha) | Post-emerge Herbicidal Activity DIGSA (phytotoxicity rating) ([18]; 63 g ai/ha) | Post-emerge Herbicidal Activity DIGSA (phytotoxicity rating) ([18]; 250 g ai/ha) | Post-emerge Herbicidal Activity AMARE (phytotoxicity rating) [19, 25] | Post-emerge Herbicidal Activity ABUTH (phytotoxicity rating) ([21]; 63 g ai/ha) | Post-emerge Herbicidal Activity ABUTH (phytotoxicity rating) ([21]; 250 g ai/ha) | Post-emerge Herbicidal Activity CORN (crop damage rating) ([22]; 250 g ai/ha)
90: phytotoxicity rating CHEAL ([7]; 63 g ai/ha) | phytotoxicity rating DIGSA ([8]; 63 g ai/ha) | phytotoxicity rating ABUTH ([10]; 63 g ai/ha) | Post-emerge Herbicidal Activity IPOHE (phytotoxicity rating) ([15]; 250 g ai/ha) | Post-emerge Herbicidal Activity CASOB (phytotoxicity rating) ([20]; 250 g ai/ha) | Post-emerge Herbicidal Activity CORN (crop damage rating) ([22]; 63 g ai/ha)
95: Post-emerge Herbicidal Activity SETVI (phytotoxicity rating) ([14]; 63 g ai/ha) | Post-emerge Herbicidal Activity AMARE (phytotoxicity rating) [19, 24]
99: Post-emerge Herbicidal Activity CHEAL (phytotoxicity rating) ([17]; 250 g ai/ha)
10: Post-emerge Herbicidal Activity RICE (crop damage rating) ([23]; 250 g ai/ha)
20: phytotoxicity rating SETVI ([4]; 63 g ai/ha) | phytotoxicity rating RICE ([12]; 250 g ai/ha)
30: phytotoxicity rating SORHA ([6]; 250 g ai/ha)
70: Post-emerge Herbicidal Activity IPOHE (phytotoxicity rating) ([15]; 63 g ai/ha)
80: Post-emerge Herbicidal Activity SORHA (phytotoxicity rating) ([16]; 250 g ai/ha) | Post-emerge Herbicidal Activity CHEAL (phytotoxicity rating) ([17]; 63 g ai/ha) | Post-emerge Herbicidal Activity CASOB (phytotoxicity rating) ([20]; 63 g ai/ha)
60: phytotoxicity rating IPOHE ([5]; 250 g ai/ha) | Post-emerge Herbicidal Activity SORHA (phytotoxicity rating) ([16]; 63 g ai/ha)
50: phytotoxicity rating ECHCG ([2]; 63 g ai/ha)
